The target in one assay is rat α4β2 nAChR subtype (Rattus norvegicus (Rat), UniProt P09483+P12390). The assay is described as follows: Radioligand ([3H]nicotine) binding at α4β2 nAChR, rat cortex membranes. The procedure:
Preparation of Membranes from Rat Cortex:
(§1) Rats (female, Sprague-Dawley), weighing 150-250 g, were maintained on a 12 h light/dark cycle and were allowed free access to water and food supplied by PMI Nutrition International, Inc. Animals were anesthetized with 70% CO2, and then decapitated. Brains were removed and placed on an ice-cold platform. […] The homogenate was centrifuged at 18,000×g for 20 min at 4° C. and the resulting pellet was re-suspended in 20 volumes of ice-cold water. After 60 min incubation on ice, a new pellet was collected by centrifugation at 18,000×g for 20 min at 4° C. The final pellet was re-suspended in 10 volumes of buffer and stored at −20° C.
(§2) On the day of the assay, the frozen membranes were thawed and spun at 48,000×g for 20 min. The supernatant was decanted and discarded. The pellet was resuspended in Dulbecco's phosphate buffered saline (PBS, Life Technologies) pH 7.4 and homogenized with the Polytron for 6 seconds. Protein concentrations were determined using a Pierce BCA Protein Assay Kit, with bovine serum albumin as the standard (Pierce Chemical Company, Rockford, Ill.).
(§3) Tissue was rinsed 3 times in PBS, pH 7.4. Scintillation fluid was added to filters containing the washed tissue and allowed to equilibrate.
(§4) Data were expressed as disintegrations per minute (DPMs). Within each assay, each point had 2-3 replicates. The replicates for each point were averaged and plotted against the log of the drug concentration.

The target in the next assay is human α4β2 nAChR subtype (Homo sapiens (Human), UniProt P17787+P43681). Briefly: Radioligand ([3H]nicotine) binding at α4β2 nAChR, SH-EP1/human α4β2 clonal cell membranes. The method, then: Preparation of Membranes from SH-EP1/Human α4β2 Clonal Cells:
Cell pellets from 40 150 mm culture dishes were pooled, and homogenized by Polytron (Kinematica GmbH, Switzerland) in 20 milliliters of ice-cold preparative buffer. The homogenate was centrifuged at 48,000 g for 20 minutes at 4° C. The resulting pellet was re-suspended in 20 mL of ice-cold preparative buffer and stored at −20° C.
as §2, §3, §4

The target in another assay is α7 nAChR subtype (Rattus norvegicus (Rat), UniProt Q05941). Briefly: Radioligand ([3H]MLA) binding at α7 nAChR, rat hippocampus membranes. As to conditions: for α7 high through-put screening outcome (Ki not determined): did not bind sufficiently in HTS at α7 to warrant Ki determination; for Ki: [3H]MLA 5 nM, rat hippocampus membranes. The method, then: as §1, with “CO2,” for “CO2, and”, “in 10” for “in 20”
α7 nAChR subtype, sequence (Q05941 23-502): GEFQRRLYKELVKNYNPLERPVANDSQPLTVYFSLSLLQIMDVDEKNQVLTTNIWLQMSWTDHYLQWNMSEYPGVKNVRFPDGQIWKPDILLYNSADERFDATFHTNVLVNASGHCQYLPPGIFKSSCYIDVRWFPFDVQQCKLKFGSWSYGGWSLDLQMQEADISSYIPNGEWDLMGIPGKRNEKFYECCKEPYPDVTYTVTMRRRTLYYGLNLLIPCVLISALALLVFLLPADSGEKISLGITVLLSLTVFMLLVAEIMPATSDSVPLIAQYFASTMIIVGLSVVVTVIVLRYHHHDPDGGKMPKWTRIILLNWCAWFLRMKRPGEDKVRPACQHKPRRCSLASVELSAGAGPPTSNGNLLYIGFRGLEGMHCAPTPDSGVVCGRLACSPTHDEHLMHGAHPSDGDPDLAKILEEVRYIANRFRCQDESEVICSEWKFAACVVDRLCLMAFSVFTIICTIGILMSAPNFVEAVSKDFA
The binding of [^3H]MLA was measured using a modification of the methods of Davies et al., Neuropharmacol. […] [^3H]MLA (Specific Activity=25-35 Ci/mmol) was obtained from Tocris. The binding of [^3H]MLA was determined using a 2 h incubation at 21° C. Incubations were conducted in 48-well micro-titre plates and contained about 200 μg of protein per well in a final incubation volume of 300 μL. The incubation buffer was PBS and the final concentration of [^3H]MLA was 5 nM. The binding reaction was terminated by filtration of the protein containing bound ligand onto glass fiber filters (GF/B, Brandel) using a Brandel Tissue Harvester at room temperature. […] Each filter was washed with PBS (3×1 mL) at room temperature. Non-specific binding was determined by inclusion of 50 μM non-radioactive MLA in selected wells.
The inhibition of [^3H]MLA binding by test compounds was determined by including seven different concentrations of the test compound in selected wells. Each concentration was replicated in triplicate. IC50 values were estimated as the concentration of compound that inhibited 50 percent of specific [^3H]MLA binding.

The mark [1] stands for this setting: [3H]nicotine 5 nM, rat cortex membranes.
Where [2] appears, read: [3H]nicotine 5 nM, SH-EP1/human α4β2 membranes, read-out: Human α4β2 Ki.

Read-outs that look alike come from different tables or passages of the source.

human α4β2 nAChR subtype, sequence (P43681 29-627): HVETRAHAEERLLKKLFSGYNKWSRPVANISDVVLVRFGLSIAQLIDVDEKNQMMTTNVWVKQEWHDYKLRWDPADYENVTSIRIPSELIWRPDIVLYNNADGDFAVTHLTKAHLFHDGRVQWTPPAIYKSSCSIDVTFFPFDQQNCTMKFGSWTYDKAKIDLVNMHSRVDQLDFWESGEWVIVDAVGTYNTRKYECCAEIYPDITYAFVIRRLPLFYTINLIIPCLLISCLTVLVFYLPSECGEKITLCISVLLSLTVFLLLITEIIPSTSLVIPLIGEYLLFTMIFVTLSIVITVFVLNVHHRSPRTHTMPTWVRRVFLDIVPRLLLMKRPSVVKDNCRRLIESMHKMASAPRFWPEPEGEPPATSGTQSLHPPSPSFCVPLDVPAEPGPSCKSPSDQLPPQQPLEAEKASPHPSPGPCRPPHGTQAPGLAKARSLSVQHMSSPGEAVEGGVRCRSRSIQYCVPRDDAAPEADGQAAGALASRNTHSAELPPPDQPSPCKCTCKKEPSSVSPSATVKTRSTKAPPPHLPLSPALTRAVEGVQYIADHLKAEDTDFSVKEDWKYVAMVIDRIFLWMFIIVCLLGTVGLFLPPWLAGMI
human α4β2 nAChR subtype, sequence (P17787 26-502): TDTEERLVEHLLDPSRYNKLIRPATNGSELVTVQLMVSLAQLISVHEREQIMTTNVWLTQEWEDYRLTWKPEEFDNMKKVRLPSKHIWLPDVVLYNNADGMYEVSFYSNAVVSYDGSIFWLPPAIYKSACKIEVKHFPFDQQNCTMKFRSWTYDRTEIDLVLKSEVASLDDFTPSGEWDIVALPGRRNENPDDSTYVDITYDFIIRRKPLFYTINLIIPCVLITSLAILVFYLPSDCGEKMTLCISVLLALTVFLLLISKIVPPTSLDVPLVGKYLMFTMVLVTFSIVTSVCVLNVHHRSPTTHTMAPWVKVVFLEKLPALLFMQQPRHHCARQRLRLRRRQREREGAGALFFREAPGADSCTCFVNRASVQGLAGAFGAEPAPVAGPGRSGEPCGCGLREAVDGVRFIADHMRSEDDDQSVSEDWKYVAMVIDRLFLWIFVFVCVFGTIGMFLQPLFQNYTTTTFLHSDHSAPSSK
rat α4β2 nAChR subtype, sequence (P09483 31-630): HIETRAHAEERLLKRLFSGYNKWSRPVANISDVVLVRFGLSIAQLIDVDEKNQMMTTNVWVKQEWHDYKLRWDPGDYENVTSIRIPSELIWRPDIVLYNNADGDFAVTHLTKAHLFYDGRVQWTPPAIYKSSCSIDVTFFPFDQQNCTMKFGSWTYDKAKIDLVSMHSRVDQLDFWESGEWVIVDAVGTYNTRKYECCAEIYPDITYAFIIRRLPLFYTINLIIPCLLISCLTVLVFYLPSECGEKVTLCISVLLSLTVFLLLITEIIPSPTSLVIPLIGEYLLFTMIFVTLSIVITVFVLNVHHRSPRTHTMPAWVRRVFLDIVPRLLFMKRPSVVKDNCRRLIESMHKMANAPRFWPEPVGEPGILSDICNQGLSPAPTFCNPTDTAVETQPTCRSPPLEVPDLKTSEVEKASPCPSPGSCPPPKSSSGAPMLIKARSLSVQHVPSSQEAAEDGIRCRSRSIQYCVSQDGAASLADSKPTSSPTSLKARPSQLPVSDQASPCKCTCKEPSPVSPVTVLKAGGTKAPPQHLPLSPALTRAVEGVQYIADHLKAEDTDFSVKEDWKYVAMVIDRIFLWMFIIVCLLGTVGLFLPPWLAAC
rat α4β2 nAChR subtype, sequence (P12390 25-500): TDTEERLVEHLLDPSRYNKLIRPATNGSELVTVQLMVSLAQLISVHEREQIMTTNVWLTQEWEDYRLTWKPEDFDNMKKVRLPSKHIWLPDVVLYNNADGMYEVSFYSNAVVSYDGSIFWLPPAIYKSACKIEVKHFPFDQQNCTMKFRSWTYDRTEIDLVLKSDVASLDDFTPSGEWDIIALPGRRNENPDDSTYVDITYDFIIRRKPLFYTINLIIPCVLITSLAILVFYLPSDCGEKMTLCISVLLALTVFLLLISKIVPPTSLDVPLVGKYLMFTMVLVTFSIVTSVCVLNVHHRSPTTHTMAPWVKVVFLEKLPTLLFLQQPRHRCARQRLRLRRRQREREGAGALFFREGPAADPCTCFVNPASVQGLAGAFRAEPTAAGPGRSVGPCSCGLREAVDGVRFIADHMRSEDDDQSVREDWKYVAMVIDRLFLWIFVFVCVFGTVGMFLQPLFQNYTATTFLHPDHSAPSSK

Consider `CC(=O)Nc1ccc(C(=O)N2CC3CNCC(C3)C2)o1`, for which the Ki at rat α4β2 nAChR subtype (setting [1]) was found to be 87 nM; on human α4β2 nAChR subtype (setting [2]), 210 nM. On α7 nAChR subtype, the “α7 high through-put screening outcome (Ki not determined)” value is given as “ND; failed HTS”.

In the case of `O=C(c1ccc(C#Cc2ccccc2)o1)N1CC2CNCC2C1` (stereo not shown), the Ki on rat α4β2 nAChR subtype (setting [1]) was determined as 230 nM; at human α4β2 nAChR subtype (setting [2]) it was 43 nM; at α7 nAChR subtype, 3200 nM.

As to `O=C(c1cc(C2CC2)on1)N1CC2CNCC(C2)C1`, the Ki on rat α4β2 nAChR subtype came to 25 nM; at human α4β2 nAChR subtype (setting [2]), 83 nM. In addition, at α7 nAChR subtype, the “α7 high through-put screening outcome (Ki not determined)” value is “ND; failed HTS”.

Consider `N#Cc1coc(C(=O)N2CC3CNCC(C3)C2)c1`, for which the Ki at rat α4β2 nAChR subtype (setting [1]) amounted to 27 nM; at human α4β2 nAChR subtype it was 23 nM. Besides, at α7 nAChR subtype, the “α7 high through-put screening outcome (Ki not determined)” value was “ND; failed HTS”.

For the compound `O=C(c1ccncc1)N1CC2CNCC2C1` (stereo not shown), the Ki on rat α4β2 nAChR subtype (setting [1]) was determined as 26 nM; at human α4β2 nAChR subtype (setting [2]), 160 nM. Moreover, the “α7 high through-put screening outcome (Ki not determined)” value at α7 nAChR subtype was “ND; failed HTS”.

As to `Cc1nocc1C(=O)N1CC2CNCC2C1` (stereo not shown), the Ki was 24 nM at rat α4β2 nAChR subtype (setting [1]), 14 nM at human α4β2 nAChR subtype (setting [2]) and 56000 nM on α7 nAChR subtype.

As for `Cc1cc(F)c(C(=O)N2CC3CNCC3C2)o1` (stereo not shown), the values for the Ki on rat α4β2 nAChR subtype and on human α4β2 nAChR subtype (setting [2]) were 65 nM and 14 nM, respectively. On α7 nAChR subtype, the “α7 high through-put screening outcome (Ki not determined)” value is listed as “ND; failed HTS”.

With `Cc1occc1C(=O)N1CC2CNCC2C1` (stereo not shown), the Ki on rat α4β2 nAChR subtype (setting [1]) is 61 nM; at human α4β2 nAChR subtype (setting [2]), 29 nM; on α7 nAChR subtype it was 160000 nM.

As to `Cc1ncoc1C(=O)N1CC2CNCC(C2)C1`, the Ki on rat α4β2 nAChR subtype (setting [1]) is 20 nM; at human α4β2 nAChR subtype (setting [2]) it was 64 nM. For the same compound, the “α7 high through-put screening outcome (Ki not determined)” value at α7 nAChR subtype is “ND; failed HTS”.

As for `O=C(c1cc(Cl)co1)N1CC2CNCC2C1` (stereo not shown), the inhibition constant Ki stood at 21 nM at rat α4β2 nAChR subtype (setting [1]) and 9.7 nM on human α4β2 nAChR subtype (setting [2]). In addition, the “α7 high through-put screening outcome (Ki not determined)” value at α7 nAChR subtype is “ND; failed HTS”.

For `O=C(c1cc(Br)c(Br)o1)N1CC2CNCC2C1` (stereo not shown), the “α7 high through-put screening outcome (Ki not determined)” value at α7 nAChR subtype was “ND; failed HTS”.

In the case of `COc1coc(C(=O)N2CC3CNCC3C2)c1OC` (stereo not shown), the Ki at rat α4β2 nAChR subtype (setting [1]) stood at 140 nM; on human α4β2 nAChR subtype (setting [2]), 40 nM. Besides, the “α7 high through-put screening outcome (Ki not determined)” value on α7 nAChR subtype is recorded as “ND; failed HTS”.

`O=C(c1ccc(Br)o1)N1CC2CNCC(C2)C1`: the figures for the Ki on rat α4β2 nAChR subtype and at human α4β2 nAChR subtype (setting [2]) were 41 nM and 51 nM, respectively. The “α7 high through-put screening outcome (Ki not determined)” value at α7 nAChR subtype is “ND; failed HTS”.

Take `Cc1cc(C(=O)N2CC3CNCC(C3)C2)on1`: the Ki at rat α4β2 nAChR subtype turned out to be 29 nM; on human α4β2 nAChR subtype (setting [2]), 47 nM. For the same compound, the “α7 high through-put screening outcome (Ki not determined)” value at α7 nAChR subtype is “ND; failed HTS”.

In the case of `Cc1oncc1C(=O)N1CC2CNCC(C2)C1`, the inhibition constant (Ki) at rat α4β2 nAChR subtype (setting [1]) was 65 nM; at human α4β2 nAChR subtype (read-out: Human α4β2 Ki) it was 31 nM. The “α7 high through-put screening outcome (Ki not determined)” value on α7 nAChR subtype is listed as “ND; failed HTS”.

With `Cc1cc(C(=O)N2CC3CNCC(C3)C2)no1`, the Ki at rat α4β2 nAChR subtype was 68 nM; on human α4β2 nAChR subtype (read-out: Human α4β2 Ki), 96 nM. In addition, at α7 nAChR subtype, the “α7 high through-put screening outcome (Ki not determined)” value is on record as “ND; failed HTS”.

As to `Cc1oc(C(=O)N2CC3CNCC(C3)C2)cc1Br`, the Ki at rat α4β2 nAChR subtype came to 7.5 nM; at human α4β2 nAChR subtype (setting [2]) it was 5.2 nM. Further, the “α7 high through-put screening outcome (Ki not determined)” value on α7 nAChR subtype is listed as “ND; failed HTS”.

On to `N#Cc1ccc(C(=O)N2CC3CNCC3C2)o1` (stereo not shown), for which the values for the Ki at rat α4β2 nAChR subtype (setting [1]) and on human α4β2 nAChR subtype (read-out: Human α4β2 Ki) were 50 nM and 40 nM, respectively. At α7 nAChR subtype, the “α7 high through-put screening outcome (Ki not determined)” value is recorded as “ND; failed HTS”.

For `O=C(c1cc(F)co1)N1CC2CNCC2C1` (stereo not shown), the Ki on rat α4β2 nAChR subtype (setting [1]) was 36 nM; at human α4β2 nAChR subtype (setting [2]) it was 21 nM. The “α7 high through-put screening outcome (Ki not determined)” value at α7 nAChR subtype is “ND; failed HTS”.

`COc1cc(C(=O)N2CC3CNCC3C2)on1` (stereo not shown): the Ki at rat α4β2 nAChR subtype (setting [1]) was 19 nM; on human α4β2 nAChR subtype (setting [2]), 19 nM; at α7 nAChR subtype, 3500 nM.

As for `O=C(c1ccon1)N1CC2CNCC2C1` (stereo not shown), the Ki was 89 nM at rat α4β2 nAChR subtype (setting [1]) and 90 nM at human α4β2 nAChR subtype (setting [2]). Besides, at α7 nAChR subtype, the “α7 high through-put screening outcome (Ki not determined)” value is “ND; failed HTS”.

One may read the Ki as a measure of affinity in units of concentration, obtained from inhibition or displacement.

The values are drawn from patent publication US8921410B2, “Nicotinic acetylcholine receptor sub-type selective amides of diazabicycloalkanes” (Targacept, Inc., priority 2006, dated 2014).
